Measured values: patent publication US5942537A, “Method of inhibiting the transport of L-glutamate to treat CNS disorders” (The Regents of the University of California, priority 1993, dated 1999)

What was measured:
[1] = molecular target: T1, high affinity transport of 3H-L-glutamate into synaptosomes (Rattus norvegicus, UniProt P31596); experiment: Synaptosomal uptake of 3H-L-glutamate; assay type: biochemical; conditions: 10 μM 3H-L-glutamate; for inhibition of glutamate transport (in words): isomers at similar concentrations (20 μM)
T1 construct: Synaptosomes were prepared by the procedure of Booth et al; from tissue; host or cells: brain synaptosomes (Ficoll/sucrose gradient)
T1 sequence (P31596 whole entry): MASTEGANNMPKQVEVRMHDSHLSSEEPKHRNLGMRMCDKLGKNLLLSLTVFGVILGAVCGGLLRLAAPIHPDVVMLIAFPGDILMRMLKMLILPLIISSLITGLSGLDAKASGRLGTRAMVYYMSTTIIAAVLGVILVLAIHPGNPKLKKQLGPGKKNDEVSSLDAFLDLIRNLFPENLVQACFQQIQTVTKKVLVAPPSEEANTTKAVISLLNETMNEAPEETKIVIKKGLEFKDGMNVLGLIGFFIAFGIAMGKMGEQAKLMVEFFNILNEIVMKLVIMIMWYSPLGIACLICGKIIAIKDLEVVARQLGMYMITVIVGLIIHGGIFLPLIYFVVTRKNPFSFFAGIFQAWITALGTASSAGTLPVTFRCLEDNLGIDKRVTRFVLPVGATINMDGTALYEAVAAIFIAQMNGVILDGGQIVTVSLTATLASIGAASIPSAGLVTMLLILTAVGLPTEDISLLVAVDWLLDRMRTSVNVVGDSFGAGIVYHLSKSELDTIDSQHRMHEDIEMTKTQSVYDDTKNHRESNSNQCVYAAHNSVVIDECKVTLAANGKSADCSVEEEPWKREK
Experimental: Synaptosomal uptake of ^3 H-L-glutamate (10 μM) was followed at 37° C. in the presence and absence of 20 μM PDC isomers. The curves shown are from representative experiments (n=2-4 rate determinations) and are reported as mean ±SD. Transport rates were determined by linear regression analysis and have been corrected for background and non-specific uptake. The effect of the PDC isomers and is reported as % of control transport rate ±SD (n=8-16 rate determinations).
(§1) The Synaptosomes were prepared by the procedure of (a) Booth, R. F. G.; Clark, J. B., Biochem J. 176, 365 (1978) and assayed for synaptosomal uptake as described by (b) Kuhar, M. M.; Zarbin, M. J., Neurochem 31, 251 (1978), both which are incorporated by reference herein. The binding specificities of the four PDC isomers were determined by testing both their ability to inhibit the high affinity transport of ^3 H-L-glutamate into synaptosomes and to block the binding of radioligands to each of the three receptor sites in a synaptic plasma membrane preparation (SPM) (Synaptic plasma membranes were prepared and NMDA receptor binding quantified as described by Monaghan, D. T.; Cotman, C. W., Proc. Nat. Acad. Sci. U.S.A. 83, 7532 (1986) incorporated by reference herein). When included in the ^3 H-L-glutamate uptake assay, as represented in FIG. 3, at only a 2-fold excess relative to L-glutamate (10 μM of ^3 H-L-glutamate vs. 20 μM of 7), the L-trans-2,4-PDC isomer reduced the rate of synaptosomal transport from control levels of 1.13 nmol min^-1 mg-protein^-1 to 0.16 nmol min^-1 mg-protein^-1. […] This selective inhibition by L-trans-2,4-PDCclearly delineates a preferred configurational and/or conformational relationship for binding to the glutamate uptake protein.
Synaptosomes were prepared by the procedure of Booth et al., (Biochem J. 176:365 (1978) incorporated by reference herein), using Ficoll/sucrose gradient centrifugation. Uptake of ^3 H-L-glutamate was followed essentially as described by Kuhar and Zarbin (J. Neurochem 31:[…] (1978) incorporated by reference herein.) Synaptosomes were suspended in a physiological buffer (Krebs-Ringer phosphate buffer) and preincubated at 37° C. for 5 min. The uptake assay was initiated by the addition of ^3 H-L-glutamate (0.1-100 μM). Aliquots were removed at appropriate times (0.5-10 min) and were rapidly filtered on GF/F glass fiber filters. The filters were rapidly washed with 20 volumes of ice cold buffer. Radioactivity present on the filters was determined by liquid scintillation counting. Uptake rates were corrected for both background (i.e., uptake at 0 min) and leakage (i.e., uptake at 0° C.).

NMDA receptors = experiment: 3H-L-glutamate binding to NMDA receptors in synaptic plasma membranes; parameters: species or system rat; conditions: for ^3 H-L-GLU binding to NMDA receptors, % of Control: % of control binding ± s.d., corrected for nonspecific binding; for inhibition of ^3 H-L-glutamate binding to the NMDA receptor (in words): as reported in Table 1
Experimental: as §1
(§2) To further characterize the pharmacological specificity of the PDC conformers and identify other potential sites at which the transport inhibitor could bind, the compounds were tested for their ability to inhibit the binding of ^3 H-L-glutamate to NMDA receptors, ^3 H-KA binding to KA receptors, and ^3 H-AMPA (α-amino-3-hydroxy-5-methylisoxazole-4-propionic acid) binding to QA receptors. Binding to kainate receptors was quantified by the procedures of (a) Simon, J. R.; Contrera, J. F.; Kuhar, M. J., J. Neurochem 26, 141 (1976), and (b) London, E. D.; Coyle, J. T.; Molec. Pharm. 15, 492 (1979) which are incorporated by reference herein. Binding to quisqualate receptors (QA) were quantified as described by (c) Honore, T.; Lauridsen, J.; Krogsgaard-Larsen, P. J., Neurochem 1982, 38, 173, which are incorporated by reference herein. […] This lack of interaction with any of the excitatory receptors is in direct contrast with its potent inhibition of transport and identifies L-trans-2,4-PDC as a specific probe of the L-glutamate transport system.
(§3) Synaptic plasma membrane (SPMS) were prepared as previously described (Monaghan, D. T.; Cotman, C. W., Proc. Nat. Acad. Sci. U.S.A. 83:7532 (1986) incorporated by reference herein.) Briefly, male Sprague-Dawley rats (200 g) were decapitated, their forebrains were rapidly removed, and the brain tissue homogenized in 0.32M sucrose. Following differential centrifugation, a membrane fraction enriched in synapses, but low in myelin and mitochondria, was obtained. This membrane fraction was washed three times with […] Tris-acetate buffer, pH 7.2, and diluted into the appropriate assay buffer to about 200 μg protein/ml.
Binding to NMDA, KA, and QA receptors were quantified with ^3 H-L-glutamate, ^3 H-KA, and ^3 H-AMPA respectively. The binding assays were carried out using optimally selective conditions of time, temperature, and buffer for each of the three receptor classes. ^3 H-L-Glutamate binding was quantified under conditions that selectively label NMDA receptors. The SPMs were incubated with ^3 H-L-glutamate (10 nM, 50.9 Ci/mmol) in 50 mM Tris-acetate, pH 7.0, at 4° C. for 30 minutes. Non-specific binding was determined by the inclusion of 500 μM L-glutamate. KA receptors were quantified as previously described. ^3 H-KA (10 nM, 60 Ci/mmol) binding was determined in 50 mM Tris-citrate buffer, pH 7.0, at 4° C. for 30 min. Non-specific binding was determined by the inclusion of 100 μM unlabeled KA. QA receptors were measured with ^3 H-AMPA binding as described by Honore et al. J. Neurochem. 38:173-178 (1982). […]

KA receptors = experiment: 3H-KA binding to KA receptors in synaptic plasma membranes; parameters: species or system rat; conditions: for ^3 H-KA binding to KA receptors, % of Control: diacid 100 μM, % of control binding ± s.d., corrected for nonspecific binding
Experimental: as §2, §3
(§4) Binding to NMDA, KA, and QA receptors were quantified with ^3 H-L-glutamate, ^3 H-KA, and ^3 H-AMPA respectively. The binding assays were carried out using optimally selective conditions of time, temperature, and buffer for each of the three receptor classes. ^3 H-L-Glutamate binding was quantified under conditions that selectively label NMDA receptors. The SPMs were incubated with ^3 H-L-glutamate (10 nM, 50.9 Ci/mmol) in 50 mM Tris-acetate, pH 7.0, at 4° C. for 30 minutes. Non-specific binding was determined by the inclusion of 500 μM L-glutamate. KA receptors were quantified as previously described. ^3 H-KA (10 nM, 60 Ci/mmol) binding was determined in 50 mM Tris-citrate buffer, pH 7.0, at 4° C. for 30 min. Non-specific binding was determined by the inclusion of 100 μM unlabeled KA. QA receptors were measured with ^3 H-AMPA binding as described by Honore et al. J. Neurochem. 38:173-178 (1982). Essentially, 3 H-AMPA (10 nM, 27.6 Ci/mmol) binding is quantified in 50 mM Tris-acetate buffer, pH 7.2, containing 100 mM KSCN for 30 minutes at 4° C. Non-specific binding was determined by the inclusion of 100 μM quisqualic acid. In the inhibition studies, the conformationally defined analogues were included in the assay mixture at the appropriate concentrations (0.1-200 μM). The assays (total volume, 1.08 mL) were initiated by the addition of radiolabel and terminated by centrifugation (Beckman Microfuge, top speed, 3 min). Unbound radioligand in the supernatant was removed by suction and the radioactivity in the pellet quantified by liquid scintillation counting. All of the binding studies were carried out as 2 sets of triplicates within a single experiment and each experiment was repeated at least 3 times.

QA receptors = experiment: 3H-AMPA binding to QA receptors in synaptic plasma membranes; parameters: species or system rat; conditions: for ^3 H-AMPA binding to QA receptors, % of Control: diacid 100 μM, % of control binding ± s.d., corrected for nonspecific binding
Experimental: as §2, §3, §4

SMILES | inhibition of glutamate transport (in words) [1] | ^3 H-L-GLU binding to NMDA receptors, % of Control (NMDA receptors; diacid 20 μM) | ^3 H-L-GLU binding to NMDA receptors, % of Control (NMDA receptors; diacid 100 μM) | ^3 H-KA binding to KA receptors, % of Control (KA receptors) | ^3 H-AMPA binding to QA receptors, % of Control (QA receptors) | rate of synaptosomal transport ([1]; 20 μM compound, 37° C., control level 1.13) [nmol min^-1 mg-protein^-1] | inhibition at 20 µM ([1]; 20 μM compound, read-out: reduction in the rate of uptake) [%] | inhibition of ^3 H-L-glutamate binding to the NMDA receptor (in words) (NMDA receptors) | inhibition of radioligand binding to KA receptors (in words) (KA receptors; compound in 10^4 -fold excess) | inhibition of radioligand binding to QA receptors (in words) (QA receptors; compound in 10^4 -fold excess)
O=C(O)[C@H]1CN[C@@H](C(=O)O)C1 [Diacid 14, cis-4-Carboxy-D-proline] | substantially less effective | 76 ± 5 % of Control | 38 ± 12 % of Control | 101 ± 6 % of Control | 110 ± 9 % of Control |  |  |  |  | 
O=C(O)[C@H]1CN[C@H](C(=O)O)C1 [Diacid 7, trans-4-Carboxy-L-proline] | potent inhibitor |  | 87 ± 10 % of Control | 102 ± 10 % of Control | 109 ± 13 % of Control | 0.16 | > 80 | did not significantly inhibit | did not significantly inhibit | did not significantly inhibit
O=C(O)[C@@H]1CN[C@@H](C(=O)O)C1 [Diacid 11, trans-4-Carboxy-D-proline] | substantially less effective |  | 95 ± 12 % of Control | 92 ± 6 % of Control | 108 ± 11 % of Control |  |  | weakly inhibiting |  | 
O=C(O)[C@@H]1CN[C@H](C(=O)O)C1 [Diacid 4, cis-4-Carboxy-L-proline] | substantially less effective |  | 89 ± 13 % of Control | 100 ± 12 % of Control | 102 ± 12 % of Control |  |  |  |  | 
